According to publication PMC7767381, “Exploring the Anti-Cancer Mechanism of Novel 3,4′-Substituted Diaryl Guanidinium Derivatives” (Pharmaceuticals, 2020):

How the values were obtained:
HCT116 cells = experiment: alamarBlue cell viability assay, HCT116; format: cell-based; settings: Homo sapiens, HCT-116, 72 h, KRas mutant, read-out: HCT116 IC50 ± SEM
Excerpt: (§1) Cell viability and proliferation assays were used to evaluate the in vitro cytotoxicity of all synthesised compounds in a variety of different cancer cell lines using the alamarBlue® viability assay and the results are presented in Table 1 and Table 2. The sensitivity of cancer cells to drugs can often be compromised by PIK3CA, Ras and BRAF mutations. To determine whether such mutations are critical to the efficacy of our new compounds we tested them in a range of cancerous cell lines expressing different mutations. Firstly, we used the HL-60 (human promyelocytic leukaemia, NRas mutated) cell line for general cytotoxicity screening of all compounds. […] Lastly, toxicity against MCF-10A, which is a non-tumorigenic epithelial cell line, was also assessed for one of the most promising compounds (4). The graphs representing the viability results with the HL-60, MCF-7, HeLa, HCT-116, and HKH-2 cancer cell lines for compound 1 and derivatives 2, 3, and 4 are shown in Figures S7–S10 (ESI).
(§2) Cells were counted and seeded in 96-well plates at a density of 2 × 10^5 cells/mL for HL-60, 2.5 × 10^4 cells/mL for MCF-7, MCF10A and HeLa, 1 × 10^5 cells/mL for HCT116 and HKH-2, all of them in their respective media. The 96-well plates were then treated with a 1:100 dilution of stock concentrations of drugs or EtOH (1% v/v)/DMSO (0.1% v/v) as vehicle control in triplicate. Three blank wells containing 200 µL RPMI with no cells were also set-up as blanks. After a 72 h incubation, 20 µL of alamarBlue was added to each well. The plates were incubated in darkness at 37 °C for 4–5 h using a Molecular Devices microplate reader, the fluorescence (F) was then read at an excitation wavelength of 544 nm and an emission wavelength of 590 nm. Cell viability was then determined by subtracting the mean blank fluorescence (Fb) from the treated sample fluorescence (Fs) and expressing this as a percentage of the fluorescence of the blanked vehicle control (Fc). […] The results were then plotted as a nonlinear regression, sigmoidal dose-response curves on Prism, from which the IC50 value for each drug was determined.
(§3) The MCF-7 (human breast tumour) cell line was obtained from Prof. Mary Meegan, School of Pharmacy, TCD. It was maintained in Roswell Park Memorial Institute (RPMI) 1640 medium with stable glutamate (GlutaMax I) supplemented with 10% (v/v) fetal bovine serum (FBS), 1% (v/v) penicillin/ streptomycin (pen-strep) and 2 mM L-glutamine.
(§4) The HeLa (human epitheloid cervix carcinoma) cell line was obtained from Prof. Thorfinnur Gunnlaugsson, School of Chemistry TCD. It was maintainedin Dulbecco's Modified Eagle's Medium (DMEM) supplemented with 10% (v/v) fetal bovine serum (FBS) and 1%(v/v) penicillin/ streptomycin (pen-strep).
(§5) The HCT116and HKH-2 (human colon cancer cells) cell lines were obtained from Prof. James Murray, School of Biochemistry and Immunology TCD. They were maintainedin Dulbecco's Modified Eagle's Medium (DMEM) supplemented with 10% (v/v) fetal bovine serum (FBS), 1% (v/v) penicillin/ streptomycin (pen-strep), 1% (v/v) sodium pyruvate (NaPyr), 1% (v/v) L-glutamine (L-Glu) and, only for HKH-2, 0.6 mg/mL geneticine (G418).
(§6) MCF-10A (human breast epithelial) cell line was obtained from Prof. Mary Meegan, School of Pharmacy, TCD. […]
(§7) Cells were counted and seeded in 96 well plates at a density of 2 × 10^5 cells/mL for HL-60, 2.5× 10^4 cells/mL for MCF-7, MCF10A and HeLa, 1 × 10^5 cells/mL for HCT116 and HKH-2, all of them in their respective media. […]

HKH-2 cells = experiment: alamarBlue cell viability assay, HKH-2; format: cell-based; settings: Homo sapiens, 72 h, mutated KRas disrupted, read-out: HKH-2 IC50 ± SEM
Excerpt: as §1, §2, §3, §4, §5, §6, §7

SMILES | IC50 (HCT116 cells) | melting point | IC50 (HKH-2 cells)
Cl.N=C(N)Nc1ccc(Oc2cccc(Nc3ccc(Cl)c(C(F)(F)F)c3)c2)cc1 [Compound 3, 1-(4-(3-((4-Chloro-3-(trifluoromethyl)phenyl)amino)phenoxy)phenyl)guanidine hydrochloride] | 15.9 ± 2.73 µM | 58 to 60 °C | 10.3 ± 0.74 µM
Cl.N=C(N)Nc1ccc(Oc2cccc(Nc3ccc(Cl)c(C(F)(F)F)c3)c2)cn1 [Compound 4, 1-(5-(3-((4-Chloro-3-(trifluoromethyl)phenyl)amino)phenoxy)pyridin-2-yl)guanidine hydrochloride] | 4.59 ± 0.4 µM | 89 to 91 °C | 2.88 ± 0.15 µM
Cl.Cl.N=C(N)Nc1ccc(Oc2cccc(NC(=N)Nc3ccc(Cl)c(C(F)(F)F)c3)c2)cn1 [Compound 2, 1-(4-Chloro-3-(trifluoromethyl)phenyl)-3-(3-((6-guanidinopyridin-3-yl)oxy)phenyl) guanidine dihydrochloride] | 7.29 ± 0.53 µM | 169 to 171 °C | 8.09 ± 0.78 µM
